The text below walks through data of US12060351B2, “Thiadiazole IRAK4 inhibitors” (Gilead Sciences, Inc., priority 2018, dated 2024).

Where two headings read alike, the source gives them in different places. Some results are limits rather than exact numbers.

In one assay the target is T1, IRAK4 enzyme (Homo sapiens, UniProt Q9NWZ3).
T1 construct: purchased Carna Biosciences, Chuo-ku, Kobe, Japan
T1 sequence (Q9NWZ3 1-460): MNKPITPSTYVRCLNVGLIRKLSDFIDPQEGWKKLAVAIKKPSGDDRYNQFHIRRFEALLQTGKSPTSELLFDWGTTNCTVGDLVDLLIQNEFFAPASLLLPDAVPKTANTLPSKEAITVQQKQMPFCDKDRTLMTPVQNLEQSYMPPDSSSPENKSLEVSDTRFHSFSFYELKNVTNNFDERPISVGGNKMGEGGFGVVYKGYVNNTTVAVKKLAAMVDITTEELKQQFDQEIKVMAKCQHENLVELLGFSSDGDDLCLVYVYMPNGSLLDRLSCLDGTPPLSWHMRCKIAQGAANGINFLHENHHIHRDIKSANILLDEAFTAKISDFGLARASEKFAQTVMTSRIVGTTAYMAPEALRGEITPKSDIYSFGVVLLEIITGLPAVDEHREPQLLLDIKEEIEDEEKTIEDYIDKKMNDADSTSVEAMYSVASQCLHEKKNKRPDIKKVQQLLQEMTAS
The experiment in a line: IRAK4 Biochemical Assay (TR-FRET, STK1 KinEASE). The conditions noted are these: 500 μM ATP. As to the method: IRAK4 enzyme (Carna Biosciences, Chuo-ku, Kobe, Japan) activity was measured by detecting phosphorylated peptide substrate formation using an antibody against the phosphorylated peptide substrate. This is a time-resolved fluorescence resonance energy transfer (TR-FRET) immunoassay, based on the STK1 KinEASE Assay (Cisbio, Bedford, Massachusetts). The assay was designed as a simple two-step, endpoint assay (a 5 μl enzyme reaction followed by 5 μl stop and detect Solution) performed in ProxiPlate-384 Plus plates (Perkin Elmer, Waltham, Massachusetts). […] Compounds diluted in DMSO were spotted into 384 well plates using a Labcyte® Echo 550 Liquid Handling System prior to addition of IRAK4 enzyme and peptide substrate. Reaction solutions were delivered using a Multi-Flo (Bio-Tek Instruments). The enzyme and peptide solution was incubated with compound for 15 minutes at room temp before the reaction was initiated by the addition of ATP. The standard 5 μl reaction mixture contained 500 μM ATP, 2 μM peptide (STK1 Peptide), 0.75 nM of IRAK4 in reaction buffer (50 mM HEPES, pH 7.0, 0.02% NaN3, 0.01% BSA, 0.1 mM Orthovanadate, 5 mM MgCl2, 0.025% NP-40, 1 mM DTT). After 120 min of incubation at room temperature, 5 μl of Stop and Detect Solution (1:100 Cryptate labeled anti-phosphorylated peptide antibody solution and 125 nM Tracer in a 50 mM HEPES pH 7.0 detection buffer containing sufficient EDTA) was added. The plate was then further incubated for 60 minutes at room temperature and read on Envision 2103 Multilabeled reader (PerkinElmer) with excitation/emission/FRET emission at 340 nm/615 nm/665 nm, respectively. Fluorescence intensities at 615 nm and 665 nm emission wavelengths were expressed as a ratio (665 nm/615 nm).
For orientation: Time-resolved FRET reads energy transfer from a long-lived donor to a nearby acceptor.

Another assay relates to TNFα. The experiment in a line: IRAK4 Monocyte TNFα Cell Based Assay (LPS-stimulated, TR-FRET TNFα detection). Details: species or system human. The conditions noted are these: read-out: EC50 MONO TNF HTRF. How it is done:
IRAK4 Monocyte TNFα Cell Based Assay Procedure:
The cell suspension was then plated at a density of 5,000 cells/well onto black 384 well Greiner clear bottom plates. Plates were pre-spotted with test compounds and serially diluted in DMSO where 40 nL/well were delivered using the Echo 550 acoustic liquid dispenser (Labcyte®) for a final DMSO concentration of 0.1%. Plated cells were treated with compound for 1 hour at 37° C. Cells were then stimulated with 50 pg/ml of LPS (Sigma) excluding outside columns of plate used for unstimulated cell control wells. Cells were incubated for an additional 4 hours at 37° C. Cells were then spun out of the media and 5 μl of sample were taken and analyzed for total TNFα content using the TR-FRET Human TNFα detection system (CisBio). This system utilizes two labeled antibodies (cryptate and XL665) that bind to two different epitopes of the TNFα molecule and produce FRET signal proportional to the concentration of TNFα in the sample. Detection antibodies are mixed 50:50 and 5 μL were dispensed into each well. Plates were covered with clear seals and incubated at room temp overnight. […] Percent of control was calculated as follows: % Control=100×(RatioSample−Ratio0% Stimulation)/(Ratio100% Stimulation−Ratio0% Stimulation) where unstimulated cells (0% stimulation) were the negative control and stimulated cells (100% stimulation) were used as the positive control.

[1] abbreviates: Homo sapiens, Monocyte, human monocytes, LPS-stimulated, Table 2 second part (compounds 33-343).
[2] abbreviates: human monocytes, LPS-stimulated, Table 2 second part (compounds 33-343).

On to `CC(C)Nc1cc(-c2ccc3cc(C#N)cnn23)ncc1-c1nnc([C@@H]2CC[C@H]2C(C)(C)O)s1` (racemic) [Example 88, 7-(5-(5-((1,2-trans)-2-(2-hydroxypropan-2-yl)cyclobutyl)-1,3,4-thiadiazol-2-yl)-4-(isopropylamino)pyridin-2-yl)pyrrolo[1,2-b]pyridazine-3-carbonitrile], for which the IC50 against IRAK4 enzyme (IC50 IRAK4-HTBS, Table 2 second part (compounds 33-343)) was determined as 0.83 nM.
Turning to `CC(C)Nc1cc(-c2ccc3cc(C#N)cnn23)ncc1-c1nnc(N2CCS(=O)(=O)CC2)s1` [Compound 257, 7-(5-(5-(1,1-dioxidothiomorpholino)-1,3,4-thiadiazol-2-yl)-4-(isopropylamino)pyridin-2-yl)pyrrolo[1,2-b]pyridazine-3-carbonitrile], in the assay on TNFα (setting [1]), the EC50 was no less than 10000 nM.
For the molecule `CC(=O)N[C@H]1CC[C@H](c2nnc(-c3cnc(-c4ccc5cc(C#N)cnn45)cc3NC(C)C)s2)CC1` [Example 24, N-((1r,4r)-4-(5-(6-(3-cyanopyrrolo[1,2-b]pyridazin-7-yl)-4-(isopropylamino)pyridin-3-yl)-1,3,4-thiadiazol-2-yl)cyclohexyl)acetamide], the IC50 on IRAK4 enzyme (Table 2 first part (compounds 1-32), read-out: IC50 HTRF) was less than 1 nM.
As to `CC(=O)N[C@@H]1[C@@H]2CC[C@H]1CN(c1nnc(-c3cnc(-c4ccc5cc(C#N)cnn45)cc3N[C@H](C)C#N)s1)C2` [Example 53, N-((1R,5S,8S)-3-(5-(4-(((R)-1-cyanoethyl)amino)-6-(3-cyanopyrrolo[1,2-b]pyridazin-7-yl)pyridin-3-yl)-1,3,4-thiadiazol-2-yl)-3-azabicyclo[3.2.1]octan-8-yl)acetamide], in the assay with TNFα (setting [1]), the 50% effective concentration (EC50) is 0.6 nM.
On to `CC(=O)NC12CCC(c3nnc(-c4cnc(-c5ccc6cc(C#N)cnn56)cc4N[C@H](C)C#N)s3)(CC1)CC2` [Example 72, (R)-N-(4-(5-(4-((1-cyanoethyl)amino)-6-(3-cyanopyrrolo[1,2-b]pyridazin-7-yl)pyridin-3-yl)-1,3,4-thiadiazol-2-yl)bicyclo[2.2.2]octan-1-yl)acetamide], for which the EC50 in the assay on TNFα (setting [1]) amounted to 2.8 nM.
The same measure, in the same setting: then `CC(C)Nc1cc(-c2ccc3cc(C#N)cnn23)ncc1-c1nnc(N2C[C@H]3CC[C@@H](C2)[C@@H]3NC(=O)[C@@H](C)O)s1` [Example 90, (R)-N-((1R,5S,8s)-3-(5-(6-(3-cyanopyrrolo[1,2-b]pyridazin-7-yl)-4-(isopropylamino)pyridin-3-yl)-1,3,4-thiadiazol-2-yl)-3-azabicyclo[3.2.1]octan-8-yl)-2-hydroxypropanamide], with 3.6 nM.
Same read-out and setting: then `CC(C)Nc1cc(-c2ccc3cc(C#N)cnn23)ncc1-c1nnc(N2C[C@H]3CC[C@@H](C2)[C@@H]3NC(=O)N2CCN(C)CC2)s1` [Example 96, N-((1R,5S,8s)-3-(5-(6-(3-cyanopyrrolo[1,2-b]pyridazin-7-yl)-4-(isopropylamino)pyridin-3-yl)-1,3,4-thiadiazol-2-yl)-3-azabicyclo[3.2.1]octan-8-yl)-4-methylpiperazine-1-carboxamide], with 2.3 nM; and `CC(=O)N1CCN(C(=O)N[C@@H]2[C@@H]3CC[C@H]2CN(c2nnc(-c4cnc(-c5ccc6cc(C#N)cnn56)cc4NC(C)C)s2)C3)CC1` [Example 104, 4-acetyl-N-((1R,5S,8s)-3-(5-(6-(3-cyanopyrrolo[1,2-b]pyridazin-7-yl)-4-(isopropylamino)pyridin-3-yl)-1,3,4-thiadiazol-2-yl)-3-azabicyclo[3.2.1]octan-8-yl)piperazine-1-carboxamide], with 1.7 nM.
Turning to `CC(C)Nc1cc(-c2ccc3cc(C#N)cnn23)ncc1-c1nnc(N2CC3CC(C2)N3C(=O)CN=S(C)(C)=O)s1` [Example 107, 7-(5-(5-(6-(2-((dimethyl(oxo)-16-sulfanylidene)amino)acetyl)-3,6-diazabicyclo[3.1.1]heptan-3-yl)-1,3,4-thiadiazol-2-yl)-4-(isopropylamino)pyridin-2-yl)pyrrolo[1,2-b]pyridazine-3-carbonitrile], in the assay on TNFα (setting [2]), the EC50 came to 18.4 nM.
The same measure, in the same setting: then `CC1(Nc2cc(-c3ccc4cc(C#N)cnn34)ncc2-c2nnc(N3CC4CC(C3)N4C(=O)C(C)(C)O)s2)COC1` [Example 112, 7-(5-(5-(6-(2-hydroxy-2-methylpropanoyl)-3,6-diazabicyclo[3.1.1]heptan-3-yl)-1,3,4-thiadiazol-2-yl)-4-((3-methyloxetan-3-yl)amino)pyridin-2-yl)pyrrolo[1,2-b]pyridazinc-3-carbonitrile], with 13.1 nM.
Regarding `C[C@H](C#N)Nc1cc(-c2ccc3cc(C#N)cnn23)ncc1-c1nnc(N2CC3CC(C2)N3C(=O)C(C)(C)O)s1` [Example 115, 7-(4-(((R)-1-cyanoethyl)amino)-5-(5-(6-(2-hydroxy-2-methylpropanoyl)-3,6-diazabicyclo[3.1.1]heptan-3-yl)-1,3,4-thiadiazol-2-yl)pyridin-2-yl)pyrrolo[1,2-b]pyridazine-3-carbonitrile], the EC50 in the assay with TNFα (Homo sapiens, Monocyte) worked out at 3.5 nM.
Turning to `CC(C)Nc1cc(-c2ccc3cc(C#N)cnn23)ncc1-c1nnc(N2C[C@H]3CC[C@@H](C2)[C@@H]3NC(=O)N2CCN(C3COC3)CC2)s1` [Example 116, N-((1R,5S,8s)-3-(5-(6-(3-cyanopyrrolo[1,2-b]pyridazin-7-yl)-4-(isopropylamino)pyridin-3-yl)-1,3,4-thiadiazol-2-yl)-3-azabicyclo[3.2.1]octan-8-yl)-4-(oxetan-3-yl)piperazine-1-carboxamide], in the assay on TNFα (setting [1]), the EC50 was determined as 4.1 nM.
The same measure, in the same setting: in the case of `CC(C)Nc1cc(-c2ccc3cc(C#N)cnn23)ncc1-c1nnc(C2CCNCC2)s1` [Example 129, 7-(4-(isopropylamino)-5-(5-(piperidin-4-yl)-1,3,4-thiadiazol-2-yl)pyridin-2-yl)pyrrolo[1,2-b]pyridazine-3-carbonitrile] it was 21.7 nM.
Consider `CC(C)Nc1cc(-c2ccc3cc(C#N)cnn23)ncc1-c1nnc([C@H]2C[C@@H](NC(=O)C3CC3)C2)s1` [Example 281, N-((1s,3s)-3-(5-(6-(3-cyanopyrrolo[1,2-b]pyridazin-7-yl)-4-(isopropylamino)pyridin-3-yl)-1,3,4-thiadiazol-2-yl)cyclobutyl)cyclopropanecarboxamide], for which the EC50 in the assay on TNFα (setting [1]) was 8280 nM.
For `CC(C)Nc1cc(-c2ccc3cc(C#N)cnn23)ncc1-c1nnc([C@H]2C[C@H](NC3COC3)C2)s1` [Example 283, 7-(4-(isopropylamino)-5-(5-((1r,3r)-3-(oxetan-3-ylamino)cyclobutyl)-1,3,4-thiadiazol-2-yl)pyridin-2-yl)pyrrolo[1,2-b]pyridazine-3-carbonitrile], the EC50 in the assay with TNFα (setting [1]) worked out at 19.9 nM.
Same read-out and setting: in the case of `CC(C)(O)C(=O)NC12CCC(c3nnc(-c4cnc(-c5ccc6cc(C#N)cnn56)cc4NC4CCOCC4)s3)(CC1)CC2` [Example 337, N-(4-(5-(6-(3-cyanopyrrolo[1,2-b]pyridazin-7-yl)-4-((tetrahydro-2H-pyran-4-yl)amino)pyridin-3-yl)-1,3,4-thiadiazol-2-yl)bicyclo[2.2.2]octan-1-yl)-2-hydroxy-2-methylpropanamide] it was 3.3 nM.

The IC50 is the concentration needed to halve the response being measured. By EC50 is commonly meant the concentration needed to bring the measured effect to its halfway point.
